Consider four molecules from ChEMBL document CHEMBL5131517 (ACS Med Chem Lett, 2022).

Some results are limits rather than exact numbers.

In test [1] the target is GABA-A receptor; anion channel (Homo sapiens) (UniProt P14867+P47870+P18507+P28472+P48169+Q99928+Q9UN88+P34903+O00591+O14764+Q8N1C3+P18505+P78334+P47869+P31644+Q16445). Nature of the test: Inhibition of GABA-A receptor (unknown origin). It is filed as protein-complex assay. The conditions noted are these: concentration not given here.
Test [2] is filed under the species Homo sapiens. Nature of the test: Inhibition of BZP receptor (unknown origin). As to conditions: concentration not given here.
For test [3], the target named is D(1A) dopamine receptor (Homo sapiens) (UniProt P21728). Nature of the test: Inhibition of D1 receptor (unknown origin). The conditions noted are these: concentration not given here.
Chain of D(1A) dopamine receptor (Homo sapiens) (P21728 whole entry): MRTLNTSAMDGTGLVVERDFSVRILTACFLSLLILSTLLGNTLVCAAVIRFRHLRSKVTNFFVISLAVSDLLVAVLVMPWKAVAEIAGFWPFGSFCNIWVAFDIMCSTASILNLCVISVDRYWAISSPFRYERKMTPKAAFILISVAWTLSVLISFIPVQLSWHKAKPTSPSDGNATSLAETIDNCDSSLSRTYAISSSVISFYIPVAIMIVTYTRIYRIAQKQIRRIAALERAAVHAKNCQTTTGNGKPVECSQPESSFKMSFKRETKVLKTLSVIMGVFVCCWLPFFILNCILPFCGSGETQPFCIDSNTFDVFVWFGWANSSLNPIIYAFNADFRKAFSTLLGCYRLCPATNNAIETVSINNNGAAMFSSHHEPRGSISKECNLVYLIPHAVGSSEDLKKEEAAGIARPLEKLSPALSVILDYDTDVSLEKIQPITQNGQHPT
Test [4] has as its target D(3) dopamine receptor (Homo sapiens, UniProt P35462). The test can be described thus: Inhibition of D3 receptor (unknown origin). As to conditions: concentration not given here.
Test [5] deals with T1, Muscarinic acetylcholine receptor M2 (Homo sapiens) (UniProt P08172).
T1 sequence (whole entry): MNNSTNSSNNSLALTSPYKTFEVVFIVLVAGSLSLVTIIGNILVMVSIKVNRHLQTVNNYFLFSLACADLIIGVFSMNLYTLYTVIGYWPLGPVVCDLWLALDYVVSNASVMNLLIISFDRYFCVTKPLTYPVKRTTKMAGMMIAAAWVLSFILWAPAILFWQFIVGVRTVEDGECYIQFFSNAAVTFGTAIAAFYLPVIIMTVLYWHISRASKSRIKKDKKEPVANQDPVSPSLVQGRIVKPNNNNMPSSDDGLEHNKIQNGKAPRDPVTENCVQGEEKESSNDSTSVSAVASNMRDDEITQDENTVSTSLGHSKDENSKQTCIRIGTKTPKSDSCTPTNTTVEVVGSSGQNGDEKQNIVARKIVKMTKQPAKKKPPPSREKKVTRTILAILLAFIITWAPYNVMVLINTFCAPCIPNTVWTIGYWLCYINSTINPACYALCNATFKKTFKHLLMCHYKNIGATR
The test can be described thus: Inhibition of M2 receptor (unknown origin). The conditions noted are these: concentration not given here.

The target in test [6] is Histamine H2 receptor (Homo sapiens) (UniProt P25021). Nature of the test: Inhibition of H2 receptor (unknown origin). As to conditions: concentration not given here.
Chain of Histamine H2 receptor (Homo sapiens) (P25021 whole entry): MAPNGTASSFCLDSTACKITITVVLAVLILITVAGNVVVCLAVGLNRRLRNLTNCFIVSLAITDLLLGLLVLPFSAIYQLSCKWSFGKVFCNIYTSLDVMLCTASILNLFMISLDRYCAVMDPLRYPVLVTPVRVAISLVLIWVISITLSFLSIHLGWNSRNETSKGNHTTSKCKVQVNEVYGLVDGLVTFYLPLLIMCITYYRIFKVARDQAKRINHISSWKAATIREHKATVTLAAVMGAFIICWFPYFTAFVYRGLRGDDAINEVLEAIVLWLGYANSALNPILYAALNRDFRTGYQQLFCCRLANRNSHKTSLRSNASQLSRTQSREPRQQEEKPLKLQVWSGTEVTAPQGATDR
The target of test [7] is Translocator protein (Homo sapiens) (UniProt P30536). Nature of the test: Inhibition of peripheral benzodiazepine receptor (unknown origin). The conditions noted are these: concentration not given here.
Chain of Translocator protein (Homo sapiens) (P30536 whole entry): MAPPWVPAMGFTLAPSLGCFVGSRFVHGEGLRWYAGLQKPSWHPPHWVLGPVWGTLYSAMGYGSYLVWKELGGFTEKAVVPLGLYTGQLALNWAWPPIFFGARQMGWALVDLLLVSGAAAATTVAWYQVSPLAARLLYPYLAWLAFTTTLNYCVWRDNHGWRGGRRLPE
In test [8] the target is T2, Alpha-2A adrenergic receptor (Homo sapiens) (UniProt P08913).
T2 sequence (whole entry): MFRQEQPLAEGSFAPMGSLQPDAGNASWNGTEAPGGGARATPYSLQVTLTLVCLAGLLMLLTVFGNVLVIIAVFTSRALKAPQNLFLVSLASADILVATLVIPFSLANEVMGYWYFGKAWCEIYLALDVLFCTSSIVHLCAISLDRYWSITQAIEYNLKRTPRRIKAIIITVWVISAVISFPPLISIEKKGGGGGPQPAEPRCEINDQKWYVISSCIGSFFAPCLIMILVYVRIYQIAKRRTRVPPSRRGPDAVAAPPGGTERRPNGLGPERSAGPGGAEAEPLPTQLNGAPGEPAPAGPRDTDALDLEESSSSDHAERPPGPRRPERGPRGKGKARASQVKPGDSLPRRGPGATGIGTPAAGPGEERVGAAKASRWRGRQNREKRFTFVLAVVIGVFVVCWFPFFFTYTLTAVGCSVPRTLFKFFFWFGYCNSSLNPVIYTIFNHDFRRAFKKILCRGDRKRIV
Nature of the test: Inhibition of alpha2A receptor (unknown origin). As to conditions: concentration not given here.

The target in test [9] is Histamine H1 receptor (Homo sapiens) (UniProt P35367). Nature of the test: Inhibition of H1 receptor (unknown origin). As to conditions: concentration not given here.
Chain of Histamine H1 receptor (Homo sapiens) (P35367 whole entry): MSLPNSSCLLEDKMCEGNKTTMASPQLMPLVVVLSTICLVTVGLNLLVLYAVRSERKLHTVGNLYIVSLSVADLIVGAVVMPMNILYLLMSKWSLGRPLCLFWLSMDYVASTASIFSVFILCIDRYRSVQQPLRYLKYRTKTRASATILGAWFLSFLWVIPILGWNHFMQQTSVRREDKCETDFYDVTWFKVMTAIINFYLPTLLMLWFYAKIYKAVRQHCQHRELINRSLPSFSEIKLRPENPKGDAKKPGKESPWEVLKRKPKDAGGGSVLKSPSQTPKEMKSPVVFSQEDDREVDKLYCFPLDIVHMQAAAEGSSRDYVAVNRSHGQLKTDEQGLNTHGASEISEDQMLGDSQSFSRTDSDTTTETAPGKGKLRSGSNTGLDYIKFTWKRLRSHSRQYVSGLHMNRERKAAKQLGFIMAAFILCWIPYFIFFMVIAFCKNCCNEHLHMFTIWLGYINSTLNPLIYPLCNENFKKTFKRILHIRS
For test [10], the target named is D(2) dopamine receptor (Homo sapiens) (UniProt P14416). Nature of the test: Inhibition of D2 receptor (unknown origin). As to conditions: concentration not given here.
The target in test [11] is 5-hydroxytryptamine receptor 5A (Homo sapiens, UniProt P47898). Nature of the test: Binding affinity to 5HT5A receptor (unknown origin) assessed as inhibition constant.
Chain of 5-hydroxytryptamine receptor 5A (P47898 whole entry): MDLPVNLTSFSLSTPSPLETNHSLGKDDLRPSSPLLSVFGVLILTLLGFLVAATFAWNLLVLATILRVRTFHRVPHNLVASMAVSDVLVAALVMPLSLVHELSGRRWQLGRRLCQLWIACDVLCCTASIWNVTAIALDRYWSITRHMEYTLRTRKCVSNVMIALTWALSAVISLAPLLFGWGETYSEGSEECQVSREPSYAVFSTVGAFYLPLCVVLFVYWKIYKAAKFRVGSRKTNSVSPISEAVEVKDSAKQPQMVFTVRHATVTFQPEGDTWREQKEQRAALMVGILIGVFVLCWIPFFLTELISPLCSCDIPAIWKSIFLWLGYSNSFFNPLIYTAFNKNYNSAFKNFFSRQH
In test [12] the target is T3, Alpha-1A adrenergic receptor (Homo sapiens) (UniProt P35348).
T3 sequence (whole entry): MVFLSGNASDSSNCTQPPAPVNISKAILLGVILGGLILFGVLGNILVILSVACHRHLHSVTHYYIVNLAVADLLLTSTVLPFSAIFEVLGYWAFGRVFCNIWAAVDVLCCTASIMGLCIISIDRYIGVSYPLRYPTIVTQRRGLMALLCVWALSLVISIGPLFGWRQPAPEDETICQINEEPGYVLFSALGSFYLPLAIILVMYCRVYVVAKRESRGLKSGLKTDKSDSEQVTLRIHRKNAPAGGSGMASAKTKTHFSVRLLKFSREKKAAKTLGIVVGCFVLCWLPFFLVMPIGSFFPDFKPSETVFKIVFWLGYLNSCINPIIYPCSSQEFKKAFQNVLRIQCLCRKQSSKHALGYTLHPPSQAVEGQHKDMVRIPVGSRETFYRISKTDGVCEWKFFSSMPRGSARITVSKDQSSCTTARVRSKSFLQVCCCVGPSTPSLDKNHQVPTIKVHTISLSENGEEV
Nature of the test: Inhibition of alpha1A receptor (unknown origin). As to conditions: concentration not given here.

For test [13], the target named is 5-hydroxytryptamine receptor 2A (Homo sapiens, UniProt P28223). The test can be described thus: Agonist activity at human 5HT2A receptor stably expressed in Flp-In-T-REx-293 cells assessed as maximal Gq-mediated calcium flux by Fluo-4 direct dye based FLIPR Tetra assay relative to control. It is filed as functional, cell-based. As to conditions: filed as agonist. (In general: A change in cytosolic calcium serves as a functional read-out for many receptors and channels.)
Chain of 5-hydroxytryptamine receptor 2A (P28223 whole entry): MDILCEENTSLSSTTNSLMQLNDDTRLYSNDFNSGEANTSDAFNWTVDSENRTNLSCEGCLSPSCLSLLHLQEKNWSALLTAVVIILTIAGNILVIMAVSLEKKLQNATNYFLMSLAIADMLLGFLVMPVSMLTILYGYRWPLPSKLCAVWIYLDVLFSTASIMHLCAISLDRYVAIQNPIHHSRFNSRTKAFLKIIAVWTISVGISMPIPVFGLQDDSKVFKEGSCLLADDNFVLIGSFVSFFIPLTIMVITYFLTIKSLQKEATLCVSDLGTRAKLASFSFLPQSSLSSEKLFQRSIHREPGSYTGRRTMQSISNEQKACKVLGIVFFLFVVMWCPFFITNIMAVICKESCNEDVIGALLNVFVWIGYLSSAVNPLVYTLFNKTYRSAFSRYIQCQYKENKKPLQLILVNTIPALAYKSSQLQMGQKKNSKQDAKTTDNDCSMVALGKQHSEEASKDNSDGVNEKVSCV

For test [14], the target named is T4, Muscarinic acetylcholine receptor M4 (Homo sapiens) (UniProt P08173).
T4 sequence (whole entry): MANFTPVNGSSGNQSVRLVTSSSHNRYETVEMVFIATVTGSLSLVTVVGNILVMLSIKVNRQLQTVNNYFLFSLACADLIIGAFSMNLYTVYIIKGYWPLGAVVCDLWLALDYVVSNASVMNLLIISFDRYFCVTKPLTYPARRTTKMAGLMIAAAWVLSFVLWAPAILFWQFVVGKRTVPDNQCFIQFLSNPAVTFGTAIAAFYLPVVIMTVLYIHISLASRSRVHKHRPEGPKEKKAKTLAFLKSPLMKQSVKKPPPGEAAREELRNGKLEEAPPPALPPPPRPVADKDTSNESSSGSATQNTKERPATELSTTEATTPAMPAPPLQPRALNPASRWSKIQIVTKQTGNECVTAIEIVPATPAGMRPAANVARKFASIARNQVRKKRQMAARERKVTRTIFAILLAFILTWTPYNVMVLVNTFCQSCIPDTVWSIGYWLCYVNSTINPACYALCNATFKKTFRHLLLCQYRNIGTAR
Nature of the test: Inhibition of M4 receptor (unknown origin). As to conditions: concentration not given here.

The target of test [15] is Sodium-dependent noradrenaline transporter (Homo sapiens) (UniProt P23975). Nature of the test: Inhibition of NET receptor (unknown origin). The conditions noted are these: concentration not given here.
Chain of Sodium-dependent noradrenaline transporter (Homo sapiens) (P23975 whole entry): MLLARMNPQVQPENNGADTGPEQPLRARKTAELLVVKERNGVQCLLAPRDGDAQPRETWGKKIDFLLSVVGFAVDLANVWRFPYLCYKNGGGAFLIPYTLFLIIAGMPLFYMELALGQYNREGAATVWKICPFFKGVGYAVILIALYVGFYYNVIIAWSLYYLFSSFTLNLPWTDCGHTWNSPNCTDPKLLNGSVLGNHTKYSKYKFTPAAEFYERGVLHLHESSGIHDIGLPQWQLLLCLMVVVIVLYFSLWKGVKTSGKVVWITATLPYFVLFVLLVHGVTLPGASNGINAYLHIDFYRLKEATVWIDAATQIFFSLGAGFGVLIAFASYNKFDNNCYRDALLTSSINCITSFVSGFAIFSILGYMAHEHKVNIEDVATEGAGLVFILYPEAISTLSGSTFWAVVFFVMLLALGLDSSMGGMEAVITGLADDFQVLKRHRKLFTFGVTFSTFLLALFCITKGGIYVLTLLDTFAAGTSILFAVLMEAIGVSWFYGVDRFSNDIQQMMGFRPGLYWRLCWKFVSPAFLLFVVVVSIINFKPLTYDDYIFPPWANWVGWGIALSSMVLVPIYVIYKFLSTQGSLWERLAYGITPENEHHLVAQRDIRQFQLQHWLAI
In test [16] the target is Sodium-dependent dopamine transporter (Homo sapiens) (UniProt Q01959). The test can be described thus: Inhibition of DAT receptor (unknown origin). As to conditions: concentration not given here.
Chain of Sodium-dependent dopamine transporter (Homo sapiens) (Q01959 whole entry): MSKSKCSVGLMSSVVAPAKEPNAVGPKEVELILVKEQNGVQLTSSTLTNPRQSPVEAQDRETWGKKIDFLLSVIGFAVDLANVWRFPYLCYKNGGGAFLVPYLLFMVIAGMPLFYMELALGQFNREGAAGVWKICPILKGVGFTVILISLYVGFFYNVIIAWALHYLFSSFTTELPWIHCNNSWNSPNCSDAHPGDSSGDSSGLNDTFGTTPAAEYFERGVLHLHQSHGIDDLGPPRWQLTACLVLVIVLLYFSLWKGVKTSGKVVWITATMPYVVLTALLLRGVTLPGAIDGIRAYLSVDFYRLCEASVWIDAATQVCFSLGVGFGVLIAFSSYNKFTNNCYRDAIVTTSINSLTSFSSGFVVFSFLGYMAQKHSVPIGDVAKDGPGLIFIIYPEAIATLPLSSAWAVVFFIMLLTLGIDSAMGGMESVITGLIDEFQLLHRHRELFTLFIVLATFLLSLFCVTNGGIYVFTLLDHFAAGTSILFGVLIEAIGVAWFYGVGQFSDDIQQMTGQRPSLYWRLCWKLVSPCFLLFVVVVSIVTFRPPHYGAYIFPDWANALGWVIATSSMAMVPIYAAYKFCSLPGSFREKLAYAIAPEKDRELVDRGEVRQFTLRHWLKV
Test [17] concerns the target 5-hydroxytryptamine receptor 1B (Homo sapiens, UniProt P28222). The test can be described thus: Binding affinity to 5HT1B receptor (unknown origin) assessed as inhibition constant.
The target of test [18] is 5-hydroxytryptamine receptor 1E (Homo sapiens, UniProt P28566). Nature of the test: Binding affinity to 5HT1E receptor (unknown origin) assessed as inhibition constant.
Chain of 5-hydroxytryptamine receptor 1E (P28566 whole entry): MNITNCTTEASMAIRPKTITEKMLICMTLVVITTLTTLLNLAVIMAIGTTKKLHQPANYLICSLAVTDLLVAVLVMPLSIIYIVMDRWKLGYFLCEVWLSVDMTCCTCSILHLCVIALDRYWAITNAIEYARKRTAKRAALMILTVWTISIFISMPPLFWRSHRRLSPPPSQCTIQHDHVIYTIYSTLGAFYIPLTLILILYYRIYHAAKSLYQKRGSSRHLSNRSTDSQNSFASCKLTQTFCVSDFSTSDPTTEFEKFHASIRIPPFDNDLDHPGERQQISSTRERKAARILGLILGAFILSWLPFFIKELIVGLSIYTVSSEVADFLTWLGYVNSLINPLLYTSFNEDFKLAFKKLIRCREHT

Chain of 5-hydroxytryptamine receptor 1B (P28222 whole entry): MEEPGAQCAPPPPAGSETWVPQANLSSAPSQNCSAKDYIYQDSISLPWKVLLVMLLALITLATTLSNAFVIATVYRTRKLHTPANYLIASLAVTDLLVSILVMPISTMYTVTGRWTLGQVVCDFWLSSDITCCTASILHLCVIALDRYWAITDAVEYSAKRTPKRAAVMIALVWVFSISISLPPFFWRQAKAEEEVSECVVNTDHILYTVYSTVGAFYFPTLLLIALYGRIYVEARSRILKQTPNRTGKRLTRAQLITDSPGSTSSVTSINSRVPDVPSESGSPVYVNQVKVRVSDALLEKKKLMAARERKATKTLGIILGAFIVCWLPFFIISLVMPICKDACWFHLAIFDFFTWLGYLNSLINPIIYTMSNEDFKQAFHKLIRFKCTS
Chain of D(3) dopamine receptor (P35462 whole entry): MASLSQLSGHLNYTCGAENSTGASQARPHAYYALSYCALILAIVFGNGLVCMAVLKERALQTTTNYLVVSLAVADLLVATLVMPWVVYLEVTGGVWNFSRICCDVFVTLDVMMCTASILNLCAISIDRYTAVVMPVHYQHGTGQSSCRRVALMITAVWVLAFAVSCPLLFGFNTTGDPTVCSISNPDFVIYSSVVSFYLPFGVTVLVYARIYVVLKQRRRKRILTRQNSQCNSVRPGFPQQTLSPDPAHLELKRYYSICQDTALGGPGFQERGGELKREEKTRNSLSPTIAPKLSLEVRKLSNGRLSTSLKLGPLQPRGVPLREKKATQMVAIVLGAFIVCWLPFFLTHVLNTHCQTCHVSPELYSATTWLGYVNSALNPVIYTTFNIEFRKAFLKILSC

Broadly, the inhibition is the percentage by which the read-out fell short of the control. Higher therefore signals strong suppression. One may read the Ki as the equilibrium dissociation constant of an inhibitor or competing ligand from its target. Broadly, the Emax is the maximal effect, on the per cent scale that the assay sets. `COc1cc(OC)c(C2NCCc3c2[nH]c2ccc(F)cc32)cc1OC` (centres undefined): the inhibition in test [1], in test [2], in test [3], in test [4], in test [5] and in test [6] was under 50% throughout. Further, the inhibition in test [7], in test [8], in test [9], in test [10], in test [12] and in test [14] was under 50% each time. Further, the inhibition in test [15] and in test [16] was under 50% throughout. Further, in test [11], the Ki amounted to 2840 nM. Moreover, the Emax in test [13] was determined as 97.1%.

In the case of `COc1cc(OC)c(C2NCCc3c2[nH]c2ccc(Cl)cc32)cc1OC` (centres undefined), the inhibition in test [1], in test [2], in test [3], in [4], in test [5] and in test [6] was under 50% each time. Moreover, the inhibition in [7], in test [8], in [9], in test [10], in test [12] and in test [14] was under 50% each time. Besides, the inhibition in test [15] and in test [16] was under 50% each time. Further, the Ki in test [11] was found to be 69.5 nM; in test [17], 52.1 nM; in test [18] it was 666 nM. The maximum response (Emax) in [13] was 98.4%.

`COc1ccc(C2NCCc3c2[nH]c2ccc(F)cc32)c(O)c1` (centres undefined): the inhibition in [1], in test [2], in test [3], in test [4], in test [5] and in test [6] was under 50% in each case. For the same molecule, the inhibition in [7], in [8], in test [9], in [10], in test [12] and in test [14] was under 50% throughout. For the same molecule, the inhibition in test [15] and in [16] was under 50% throughout. Besides, the Ki was found to be 229 nM in [11], 70.8 nM in test [17] and 1410 nM in test [18]. Also, in [13], the Emax was determined as 102%.

In the case of `COc1ccc(C2NCCc3c2[nH]c2ccc(Cl)cc32)c(O)c1` (centres undefined), the inhibition in test [1], in test [2], in test [3], in test [5], in [6] and in test [7] was under 50% throughout. Also, the inhibition in test [8], in [9], in [10], in test [12], in [14] and in [15] was under 50% in each case. This molecule gave an inhibition in test [16] of under 50%. Moreover, the Ki in test [11] stood at 177 nM; in test [17], 164 nM; in test [18], 1750 nM. Besides, the Emax in [13] came to 100%.
